# Experiments:
# HepG2 cells = assay: In vitro cytotoxic activity, MTT assay; type: cell-based, human; conditions: 24 h treatment, read-out: IC50, compound concentration required to inhibit cell growth by 50%
# Method: The obtained 1,8-naphthalimide–carborane conjugates were investigated for their in vitro antitumor activity by examining their cytotoxic effects using the MTT tetrazolium dye assay against the human cancer cell line HepG2 established from hepatocellular carcinoma. IC50 refers to the drug concentration (µM) required to inhibit cell growth by 50%.
# The cytotoxic properties of the synthesized compounds were evaluated using the human hepatocellular carcinoma cell line HepG2 established from hepatocellular carcinoma. The HepG2 cell line was purchased from ECACC (Salisbury, UK). Cells were grown in EMEM medium (Corning®) supplemented with 10% heat-inactivated fetal bovine serum (FBS) (Corning®) and antibiotics (Corning®), at 37 °C in a 5% CO2 atmosphere. Upon reaching 80–90% confluency, cells were detached with the trypsin (Corning®) and transferred into 96-well microplates at a density of 12 × 10^3. After overnight incubation at 37 °C in a humidified atmosphere containing 5% CO2, the cells were treated for the next 24 h with compounds. The stock solution of each compound was prepared in DMSO at 10 mM. The cytotoxicity was evaluated by the MTT assay. […] Subsequently, the medium was aspirated and replaced with 3-(4,5-dimethylthiazol-2-yl)-2,5-diphenyltetrazolium bromide (MTT) dye solution (50 µL, 0.5 mg/mL). After 3 h incubation, the resulting MTT formazan crystals were dissolved in DMSO (100 µL). To ensure the complete dissolution of formazan, the plates were shaken on an orbital microplate shaker at 1000 rpm for 15 min (Thermoshaker NeoLab 7–0055, Bionovo, Legnica, Poland). The optical density of each well was then measured on a VICTOR Nivo multimode plate reader at a wavelength of 570 nm. Each experiment consisted of 6 replications of each concentration, and each experiment was repeated three times independently. The results were calculated as a percentage of control group viability. The IC50 values were determined using a non-linear regression from the plot of % viability against log dose of compounds by using GraphPad Prism 6.0 software (GraphPad, San Diego, CA, USA).
# calf thymus DNA (ct-DNA) = assay: Melting temperature (Tm) measurements of ct-DNA, thermal denaturation; type: binding; conditions: for ΔTm ct-DNA: r = [compound]/[ct-DNA] = 0.3, pH 7.0, 20 mM cacodylate buffer, Tm of ct-DNA alone 74 °C; for effect on thermal stability of ct-DNA (in words): thermal melting experiments
# Method: The melting temperature (Tm) of DNA is defined as the temperature at which 50% of the DNA is in form of single strands forming randomly coiled structures. DNA melting is measured by the absorbance of UV light (260 nm) by the DNA solution, where the amount of UV light absorbed is proportional to the fraction of non-bonded base pairs. The majority of DNA-binding small molecules known thus far stabilize duplex DNA against heat denaturation. A high, drug-induced increase in the Tm of DNA is generally viewed as an excellent criterion to select DNA ligands and is a common feature of several anticancer drugs such as intercalators (a significant increase in Tm = 3–8 °C is observed for strong intercalation) and alkylators. The reverse situation (destabilization of DNA to facilitate its denaturation) may be an attractive option to identify therapeutic agents acting on the DNA structure.
# Our study conducted Tm measurement to estimate the impact of 1,8-naphthalimides bearing the carborane cluster on DNA stabilization (Table 1, Figures S249–S253, ESI).
# The measurements were performed by adding aliquots of DMSO stock solution of the tested compounds to the buffer solution (pH 7.0, 20 mM, cacodylate buffer, DMSO content of the final solution = 0.24–0.36%). The Tm curves were collected at r = 0.3 (r = [compound]/[ct-DNA]) to assure the dominant binding mode. Thermal melting curves were determined by following the absorption change at 260 nm as a function of temperature by using a GBC Cintra10 UV–vis spectrometer (Dandenong, Australia) equipped with a GBC Thermocell Peltier Power Supply (Dandenong, Australia) using a 1 cm path length cell. The absorbance of the samples was monitored at 260 nm from 30 to 90 °C (95 °C for compounds 54–61) with a heating rate of 1 °C/min. Tm values are the midpoints or the transition curves determined from the maximum of the first derivative. The ΔTm values were calculated by subtracting the Tm of the free nucleic acid from the Tm of the sample. Every Tm value reported in this study was average at least three measurements. The error in Tm was 0.5 °C.
# human topoisomerase IIα = molecular target: T1, human topoisomerase IIα (Homo sapiens, UniProt P11388); assay: Human topoisomerase IIα relaxation assay; type: biochemical; conditions: for IC50: supercoiled pBR322, concentration range 0.1–100 µM, read-out: IC50, compound concentration required to inhibit the activity of this enzyme by 50%
# T1 construct: purchased Inspiralis (Norwich, UK)
# T1 sequence (P11388 whole entry): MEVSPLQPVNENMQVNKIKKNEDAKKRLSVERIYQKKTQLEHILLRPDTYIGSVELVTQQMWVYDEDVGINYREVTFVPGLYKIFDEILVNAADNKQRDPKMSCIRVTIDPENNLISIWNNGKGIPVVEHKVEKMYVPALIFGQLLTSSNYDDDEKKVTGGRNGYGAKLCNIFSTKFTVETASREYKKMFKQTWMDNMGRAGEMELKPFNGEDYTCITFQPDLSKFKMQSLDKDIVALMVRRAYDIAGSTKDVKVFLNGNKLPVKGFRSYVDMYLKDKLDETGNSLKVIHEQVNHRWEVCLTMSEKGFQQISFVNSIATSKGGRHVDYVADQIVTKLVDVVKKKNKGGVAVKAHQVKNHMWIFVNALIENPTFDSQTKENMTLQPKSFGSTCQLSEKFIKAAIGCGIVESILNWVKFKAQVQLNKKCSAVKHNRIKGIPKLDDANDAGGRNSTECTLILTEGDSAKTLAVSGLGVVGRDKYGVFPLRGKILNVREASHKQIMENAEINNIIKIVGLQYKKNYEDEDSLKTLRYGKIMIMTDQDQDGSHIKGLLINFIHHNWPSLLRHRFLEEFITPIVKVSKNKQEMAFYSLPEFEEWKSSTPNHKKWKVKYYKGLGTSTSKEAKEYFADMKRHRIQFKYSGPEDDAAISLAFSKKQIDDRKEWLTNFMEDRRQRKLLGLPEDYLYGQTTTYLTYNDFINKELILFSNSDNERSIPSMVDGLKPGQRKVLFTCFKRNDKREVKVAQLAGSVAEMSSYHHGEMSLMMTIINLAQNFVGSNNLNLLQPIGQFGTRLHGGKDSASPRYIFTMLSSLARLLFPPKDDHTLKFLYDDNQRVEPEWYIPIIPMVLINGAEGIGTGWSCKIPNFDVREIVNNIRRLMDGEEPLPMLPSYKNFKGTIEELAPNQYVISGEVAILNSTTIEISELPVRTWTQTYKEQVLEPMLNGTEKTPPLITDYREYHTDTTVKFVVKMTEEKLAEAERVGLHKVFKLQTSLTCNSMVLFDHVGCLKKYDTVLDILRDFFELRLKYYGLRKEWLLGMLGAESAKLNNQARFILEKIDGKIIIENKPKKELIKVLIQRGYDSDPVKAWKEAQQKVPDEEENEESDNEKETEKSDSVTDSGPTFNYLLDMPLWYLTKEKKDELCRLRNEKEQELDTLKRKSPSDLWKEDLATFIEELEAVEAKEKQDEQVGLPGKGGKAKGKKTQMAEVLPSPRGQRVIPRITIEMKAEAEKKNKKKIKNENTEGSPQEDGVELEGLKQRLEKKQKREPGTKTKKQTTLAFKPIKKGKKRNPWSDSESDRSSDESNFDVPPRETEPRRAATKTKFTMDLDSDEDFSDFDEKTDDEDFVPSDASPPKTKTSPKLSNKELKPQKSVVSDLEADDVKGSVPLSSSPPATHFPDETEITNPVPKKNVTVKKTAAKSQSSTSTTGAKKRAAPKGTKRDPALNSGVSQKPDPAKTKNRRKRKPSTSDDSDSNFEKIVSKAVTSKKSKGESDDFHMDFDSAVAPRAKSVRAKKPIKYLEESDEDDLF
# Method: Therefore, we subjected these compounds to further detailed analyses of inhibitory potential within the concentration range of 0.1–100 µM (Figure S301, ESI) to calculate IC50 values. IC50 refers to the compound concentration (µM) required to inhibit the activity of the topoisomerase enzyme by 50%.
# The Human Topoisomerase II-alpha Relaxation Assay Kit was purchased from Inspiralis (Norwich, UK). The Topo IIα inhibition assay was performed as described by the manufacturer. […] Next, TopoIIα (1 U) was added, and the reaction mixture was incubated at 37 °C for an additional 45 min. The reaction was terminated by addition of the STEB buffer (40 % (w/v) sucrose, Tris-HCl (100 mM, pH 8), EDTA (1 mM), bromophenol blue (0.5 mg/mL)). The products were analyzed by electrophoresis using agarose gel (1%) in TAE buffer at 70 V for 2 h, followed by ethidium bromide staining. […] The percentage of Topo-II alpha activity inhibition was calculated by densitometric quantification (Quantity One software, Bio-Rad). The occurrence of a band representing supercoiled DNA on an agarose gel indicated the inhibition of enzyme activity.
Substance,IC50 (HepG2 cells) [µM],ΔTm ct-DNA (calf thymus DNA (ct-DNA)) [°C],IC50 (human topoisomerase IIα) [µM],effect on thermal stability of ct-DNA (in words) (calf thymus DNA (ct-DNA)),fold less active than compound 8 (Topo IIα IC50) (human topoisomerase IIα) [fold],fold less active than mitonafide (Topo IIα IC50) (human topoisomerase IIα) [fold]
"N-[2-(N-Pyrrolidinyl)ethyl]-4-[(6-(3-(1,2-dicarba-closo-dodecaborane-1-yl)propanamido)hexyl)amino]-1,8-naphthalimide [Compound 43]",40 ± 3.89,1.00,,,,
"N-[2-(Dimethylamino)ethyl]-4-{1-[3-(1,7-dicarba-closo-dodecaborane-1-yl)propyl]-1H-1,2,3-triazol-4-yl}methoxy-1,8-naphthalimide [Compound 18]",5.8 ± 0.23,0.37,,,,
"N-[2-(Dimethylamino)ethyl]-4-[(6-(3-(1,2-dicarba-closo-dodecaborane-1-yl)propanamido)hexyl)amino]-1,8-naphthalimide [Compound 40]",12.2 ± 0.44,0.67,,,,
"N-[2-(Dimethylamino)ethyl]-4-[(2-(3-(1,7-dicarba-closo-dodecaborane-1-yl)propanamido)ethyl)amino]-1,8-naphthalimide [Compound 37]",10.5 ± 0.53,2.00,7.49,better DNA stabilization,,
"4-[3-(1,2-Dicarba-closo-dodecaborane-1-yl)propoxy]-1,8-naphthalic anhydride [Compound 22]",28.7 ± 3.84,−1.00,,destabilization,,
"N-[2-(N-Pyrrolidinyl)ethyl]-4-[(6-(3-(1,2-dicarba-closo-dodecaborane-1-yl)propanamido)hexyl)amino]-1,8-naphthalimide [Compound 42]",21.1 ± 3.34,0.67,,,,
"N-[2-(Dimethylamino)ethyl]-4-[3-(1,7-dicarba-closo-dodecaborane-1-yl)propoxy]-1,8-naphthalimide [Compound 26]",4.89 ± 2.59,1.33,,better DNA stabilization,,
"N-[2-(Dimethylamino)ethyl]-4-[(2-(3-(1,2-dicarba-closo-dodecaborane-1-yl)propanamido)ethyl)amino]-1,8-naphthalimide [Compound 36]",6.03 ± 0.91,1.33,7.72,better DNA stabilization,,
"4-{1-[3-(1,2-Dicarba-closo-dodecaborane-1-yl)propyl]-1H-1,2,3-triazol-4-yl}methoxy-1,8-naphthalic anhydride [Compound 14]",34.1 ± 2.33,0.33,,,,
"4-{1-[3-(1,7-Dicarba-closo-dodecaborane-1-yl)propyl]-1H-1,2,3-triazol-4-yl}-1,8-naphthalic anhydride [Compound 7]",136 ± 4.24,0.00,8.78,,,
"N-[2-(Dimethylamino)ethyl]-4-{1-[3-(1,7-dicarba-closo-dodecaborane-1-yl)propyl]-1H-1,2,3-triazol-4-yl}-1,8-naphthalimide [Compound 10]",5.35 ± 1.9,0.67,,,,
"N-[2-(N-Pyrrolidinyl)ethyl]-4-{1-[3-(1,2-dicarba-closo-dodecaborane-1-yl)propyl]-1H-1,2,3-triazol-4-yl}-1,8-naphthalimide [Compound 9]",29.6 ± 1.89,0.67,,,,
"N-[2-(Dimethylamino)ethyl]-4-[(6-(3-(1,7-dicarba-closo-dodecaborane-1-yl)propanamido)hexyl)amino]-1,8-naphthalimide [Compound 41]",11.9 ± 0.92,−1.33,,destabilization,,
"N-[2-(N-Pyrrolidinyl)ethyl]-4-[(2-(3-(1,7-dicarba-closo-dodecaborane-1-yl)propanamido)ethyl)amino]-1,8-naphthalimide [Compound 39]",9.85 ± 0.59,1.00,,,,
"N-[2-(N-Pyrrolidinyl)ethyl]-4-[(2-(3-(1,2-dicarba-closo-dodecaborane-1-yl)propanamido)ethyl)amino]-1,8-naphthalimide [Compound 38]",10.1 ± 1.85,1.00,2.81,,~5,
"N-[2-(Dimethylamino)ethyl]-4-{1-[3-(1,2-dicarba-closo-dodecaborane-1-yl)propyl]-1H-1,2,3-triazol-4-yl}methoxy-1,8-naphthalimide [Compound 16]",8.17 ± 3.72,2.00,,better DNA stabilization,,
"N-[2-(Dimethylamino)ethyl]-4-[3-(1,2-dicarba-closo-dodecaborane-1-yl)propoxy]-1,8-naphthalimide [Compound 24]",11 ± 0.66,1.33,,better DNA stabilization,,
"N-[2-(N-Pyrrolidinyl)ethyl]-4-[3-(1,2-dicarba-closo-dodecaborane-1-yl)propoxy]-1,8-naphthalimide [Compound 25]",15.2 ± 2.02,0.33,,,,
"4-{1-[3-(1,7-Dicarba-closo-dodecaborane-1-yl)propyl]-1H-1,2,3-triazol-4-yl}methoxy-1,8-naphthalic anhydride [Compound 15]",38.1 ± 2.85,0.00,61.6,,,12
"N-[2-(Dimethylamino)ethyl]-4-{1-[3-(1,2-dicarba-closo-dodecaborane-1-yl)propyl]-1H-1,2,3-triazol-4-yl}-1,8-naphthalimide [Compound 8]",9.65 ± 1.02,0.33,0.58,,,
"4-{1-[3-(1,2-Dicarba-closo-dodecaborane-1-yl)propyl]-1H-1,2,3-triazol-4-yl}-1,8-naphthalic anhydride [Compound 6]",71.2 ± 1.78,−0.33,7.73,destabilization,,
"4-[3-(1,7-Dicarba-closo-dodecaborane-1-yl)propoxy]-1,8-naphthalic anhydride [Compound 23]",109 ± 3.78,−0.33,,destabilization,,
"N-[2-(N-Pyrrolidinyl)ethyl]-4-[3-(1,7-dicarba-closo-dodecaborane-1-yl)propoxy]-1,8-naphthalimide [Compound 27]",4.07 ± 1.19,0.33,,,,

# — paper PMC9101373, “Design of DNA Intercalators Based on 4-Carboranyl-1,8-Naphthalimides: Investigation of Their DNA-Binding Ability and Anticancer Activity” (International Journal of Molecular Sciences, 2022)
